Source: ChEMBL document CHEMBL4390652, “Design, biological evaluation and X-ray crystallography of nanomolar multifunctional ligands targeting simultaneously acetylcholinesterase and glycogen synthase kinase-3” (Eur J Med Chem, 2019)

Tests used:
[1] = target: Tyrosine-protein kinase Fyn (Homo sapiens) (UniProt P06241); test: Binding affinity to wild-type human partial length FYN (T243 to L534 residues) expressed in bacterial expression system assessed as residual binding level at 10 uM by Kinomescan method relative to control
[2] = target: Fibroblast growth factor receptor 2 (Homo sapiens) (UniProt P21802); test: Binding affinity to wild-type human partial length FGFR2 (D457 to E769 residues) expressed in bacterial expression system assessed as residual binding level at 10 uM by Kinomescan method relative to control
[3] = target: Homeodomain-interacting protein kinase 2 (Homo sapiens) (UniProt Q9H2X6); test: Binding affinity to wild-type human partial length HIPK2 (M153 to S564 residues) expressed in mammalian expression system assessed as residual binding level at 10 uM by Kinomescan method relative to control
[4] = target: Activated CDC42 kinase 1 (Homo sapiens) (UniProt Q07912); test: Binding affinity to wild-type human partial length TNK2 (S159 to D474 residues) expressed in bacterial expression system assessed as residual binding level at 10 uM by Kinomescan method relative to control
[5] = target: Glycogen synthase kinase-3 alpha (Homo sapiens) (UniProt P49840); test: Binding affinity to wild-type human full length GSK3A (M1 to S483 residues) expressed in bacterial expression system assessed as residual binding level at 10 uM by Kinomescan method relative to control
[6] = target: Mitogen-activated protein kinase 9 (Homo sapiens) (UniProt P45984); test: Binding affinity to wild-type human full length JNK2 (M1 to Q382 residues) expressed in mammalian expression system assessed as residual binding level at 10 uM by Kinomescan method relative to control
[7] = target: Serine/threonine-protein kinase NLK (Homo sapiens) (UniProt Q9UBE8); test: Binding affinity to wild-type human full length NLK (M13 to E527 residues) expressed in bacterial expression system assessed as residual binding level at 10 uM by Kinomescan method relative to control
[8] = target: Macrophage-stimulating protein receptor (Homo sapiens) (UniProt Q04912); test: Binding affinity to wild-type human partial length MST1R (I1057 to L1363 residues) expressed in bacterial expression system assessed as residual binding level at 10 uM by Kinomescan method relative to control
[9] = target: Ephrin type-A receptor 5 (Homo sapiens) (UniProt P54756); test: Binding affinity to wild-type human partial length EPHA5 (T627 to V930 residues) expressed in bacterial expression system assessed as residual binding level at 10 uM by Kinomescan method relative to control
[10] = target: Ephrin type-A receptor 3 (Homo sapiens) (UniProt P29320); test: Binding affinity to wild-type human partial length EPHA3 (D604 to K889 residues) expressed in bacterial expression system assessed as residual binding level at 10 uM by Kinomescan method relative to control
[11] = target: Discoidin domain-containing receptor 2 (Homo sapiens) (UniProt Q16832); test: Binding affinity to wild-type human partial length DDR2 (V555 to E855 residues) expressed in mammalian expression system assessed as residual binding level at 10 uM by Kinomescan method relative to control
MDR1 = test: in vitro; conditions: dog, MDCK-MDR1
Description: Efflux ratio of apparent permeability from basolateral to apical over apical to basolateral side in MDCK2-MDR1 cells by HPLC analysis

[12] = target: Phosphatidylinositol 4,5-bisphosphate 3-kinase catalytic subunit alpha isoform (Homo sapiens) (UniProt P42336); test: Binding affinity to wild-type human partial length PIK3CA (R108 to N1068 residues) expressed in mammalian expression system assessed as residual binding level at 10 uM by Kinomescan method relative to control
[13] = test system: Receptor-type tyrosine-protein kinase FLT3 (Homo sapiens), P36888 [D835V]; test: Binding affinity to human partial length FLT3 D835V mutant (V592 to Y969 residues) expressed in bacterial expression system assessed as residual binding level at 10 uM by Kinomescan method relative to control
[14] = target: Cyclin-dependent kinase 16 (Homo sapiens) (UniProt Q00536); test: Binding affinity to wild-type human partial length PCTK1 (G160 to A474 residues) expressed in mammalian expression system assessed as residual binding level at 10 uM by Kinomescan method relative to control
[15] = target: Dual specificity protein kinase CLK3 (Homo sapiens) (UniProt P49761); test: Binding affinity to wild-type human full length CLK3 (M1 to R490 residues) expressed in bacterial expression system assessed as residual binding level at 10 uM by Kinomescan method relative to control
[16] = test system: Tyrosine-protein kinase ABL1 (Homo sapiens), P00519 [H396P]; test: Binding affinity to human non-phosphorylated ABL1 H396P mutant (S229 to K512 residues) expressed in mammalian expression system assessed as residual binding level at 10 uM by Kinomescan method relative to control
[17] = target: Mitogen-activated protein kinase kinase kinase 3 (Homo sapiens) (UniProt Q99759); test: Binding affinity to wild-type human partial length MAP3K3 (E320 to Y626 residues) expressed in mammalian expression system assessed as residual binding level at 10 uM by Kinomescan method relative to control
[18] = target: Serine/threonine-protein kinase BRSK2 (Homo sapiens) (UniProt Q8IWQ3); test: Binding affinity to wild-type human full length BRSK2 (M1 to L674 residues) expressed in bacterial expression system assessed as residual binding level at 10 uM by Kinomescan method relative to control
[19] = target: Serine/threonine-protein kinase D2 (Homo sapiens) (UniProt Q9BZL6); test: Binding affinity to wild-type human partial length PRKD2 (A519 to E838 residues) expressed in bacterial expression system assessed as residual binding level at 10 uM by Kinomescan method relative to control
[20] = Cytotoxicity against human SH-SY5Y cells assessed as reduction in cell viability at 100 uM incubated for 24 hrs by MTT assay relative to untreated cells; format: cell-based; conditions: read-out: INH
[21] = target: Serine/threonine-protein kinase TNNI3K (Homo sapiens) (UniProt Q59H18); test: Binding affinity to wild-type human full length TNNI3K (M1 to S835 residues) expressed in bacterial expression system assessed as residual binding level at 10 uM by Kinomescan method relative to control
[22] = target: Tyrosine-protein kinase Fgr (Homo sapiens) (UniProt P09769); test: Binding affinity to wild-type human partial length FGR (L233 to T529 residues) expressed in bacterial expression system assessed as residual binding level at 10 uM by Kinomescan method relative to control
[23] = target: Dual specificity mitogen-activated protein kinase kinase 2 (Homo sapiens) (UniProt P36507); test: Binding affinity to wild-type human full length MEK2 (M1 to V400 residues) expressed in mammalian expression system assessed as residual binding level at 10 uM by Kinomescan method relative to control
[24] = target: Cyclin-dependent kinase 5 (Homo sapiens) (UniProt Q00535); test: Binding affinity to wild-type human full length CDK5 (M1 to P292 residues) expressed in bacterial expression system assessed as residual binding level at 10 uM by Kinomescan method relative to control

Serine/threonine-protein kinase NLK (Homo sapiens), sequence (Q9UBE8 whole entry, the tested form may be a part): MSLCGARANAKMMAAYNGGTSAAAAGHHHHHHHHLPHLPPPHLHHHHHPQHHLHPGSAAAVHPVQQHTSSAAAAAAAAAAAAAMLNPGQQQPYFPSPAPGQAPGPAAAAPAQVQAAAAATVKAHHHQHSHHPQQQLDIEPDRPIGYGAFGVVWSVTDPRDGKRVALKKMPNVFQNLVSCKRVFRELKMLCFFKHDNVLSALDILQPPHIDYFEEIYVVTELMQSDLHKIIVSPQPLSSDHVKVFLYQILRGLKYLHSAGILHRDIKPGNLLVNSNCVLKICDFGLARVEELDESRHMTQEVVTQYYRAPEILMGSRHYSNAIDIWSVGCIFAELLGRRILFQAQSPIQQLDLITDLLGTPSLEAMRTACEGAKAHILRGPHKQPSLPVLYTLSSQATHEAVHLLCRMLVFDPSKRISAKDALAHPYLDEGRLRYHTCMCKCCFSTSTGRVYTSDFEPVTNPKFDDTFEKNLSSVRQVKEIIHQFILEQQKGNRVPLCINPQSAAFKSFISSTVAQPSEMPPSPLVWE
Ephrin type-A receptor 3 (Homo sapiens), sequence (P29320 whole entry, the tested form may be a part): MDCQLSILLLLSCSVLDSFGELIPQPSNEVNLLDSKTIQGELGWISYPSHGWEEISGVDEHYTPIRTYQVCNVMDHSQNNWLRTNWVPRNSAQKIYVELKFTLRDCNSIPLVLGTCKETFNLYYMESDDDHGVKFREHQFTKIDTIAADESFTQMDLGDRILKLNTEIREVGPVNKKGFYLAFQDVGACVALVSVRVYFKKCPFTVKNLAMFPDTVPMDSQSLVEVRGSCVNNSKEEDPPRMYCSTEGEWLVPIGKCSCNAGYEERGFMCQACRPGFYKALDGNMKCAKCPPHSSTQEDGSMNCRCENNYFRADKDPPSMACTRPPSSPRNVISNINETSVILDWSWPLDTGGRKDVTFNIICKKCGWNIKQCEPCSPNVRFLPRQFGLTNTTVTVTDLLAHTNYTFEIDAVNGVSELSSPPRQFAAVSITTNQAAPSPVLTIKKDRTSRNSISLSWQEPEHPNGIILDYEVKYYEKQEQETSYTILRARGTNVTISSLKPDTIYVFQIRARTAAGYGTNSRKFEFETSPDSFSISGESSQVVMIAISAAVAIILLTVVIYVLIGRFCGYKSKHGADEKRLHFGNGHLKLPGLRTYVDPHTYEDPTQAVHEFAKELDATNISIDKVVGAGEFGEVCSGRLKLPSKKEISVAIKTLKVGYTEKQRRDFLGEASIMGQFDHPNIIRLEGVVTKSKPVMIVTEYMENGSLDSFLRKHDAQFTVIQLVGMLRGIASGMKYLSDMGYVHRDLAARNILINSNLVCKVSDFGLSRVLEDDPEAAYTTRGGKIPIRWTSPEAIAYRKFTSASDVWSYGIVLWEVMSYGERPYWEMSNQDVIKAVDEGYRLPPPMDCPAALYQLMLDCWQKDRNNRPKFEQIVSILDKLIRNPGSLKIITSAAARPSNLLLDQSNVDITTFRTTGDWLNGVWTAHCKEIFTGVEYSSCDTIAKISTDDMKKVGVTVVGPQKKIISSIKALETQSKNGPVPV
Macrophage-stimulating protein receptor (Homo sapiens), sequence (Q04912 25-304 limits assumed): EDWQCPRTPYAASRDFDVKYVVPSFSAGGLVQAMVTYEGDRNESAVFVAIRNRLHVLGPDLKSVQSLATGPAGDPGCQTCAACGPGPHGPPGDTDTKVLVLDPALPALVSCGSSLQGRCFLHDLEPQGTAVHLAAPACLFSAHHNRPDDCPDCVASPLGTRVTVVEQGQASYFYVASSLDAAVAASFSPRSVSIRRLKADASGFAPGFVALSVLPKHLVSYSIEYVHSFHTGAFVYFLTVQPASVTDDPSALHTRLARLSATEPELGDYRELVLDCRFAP
Macrophage-stimulating protein receptor (Homo sapiens), sequence (Q04912 310-1400 limits assumed): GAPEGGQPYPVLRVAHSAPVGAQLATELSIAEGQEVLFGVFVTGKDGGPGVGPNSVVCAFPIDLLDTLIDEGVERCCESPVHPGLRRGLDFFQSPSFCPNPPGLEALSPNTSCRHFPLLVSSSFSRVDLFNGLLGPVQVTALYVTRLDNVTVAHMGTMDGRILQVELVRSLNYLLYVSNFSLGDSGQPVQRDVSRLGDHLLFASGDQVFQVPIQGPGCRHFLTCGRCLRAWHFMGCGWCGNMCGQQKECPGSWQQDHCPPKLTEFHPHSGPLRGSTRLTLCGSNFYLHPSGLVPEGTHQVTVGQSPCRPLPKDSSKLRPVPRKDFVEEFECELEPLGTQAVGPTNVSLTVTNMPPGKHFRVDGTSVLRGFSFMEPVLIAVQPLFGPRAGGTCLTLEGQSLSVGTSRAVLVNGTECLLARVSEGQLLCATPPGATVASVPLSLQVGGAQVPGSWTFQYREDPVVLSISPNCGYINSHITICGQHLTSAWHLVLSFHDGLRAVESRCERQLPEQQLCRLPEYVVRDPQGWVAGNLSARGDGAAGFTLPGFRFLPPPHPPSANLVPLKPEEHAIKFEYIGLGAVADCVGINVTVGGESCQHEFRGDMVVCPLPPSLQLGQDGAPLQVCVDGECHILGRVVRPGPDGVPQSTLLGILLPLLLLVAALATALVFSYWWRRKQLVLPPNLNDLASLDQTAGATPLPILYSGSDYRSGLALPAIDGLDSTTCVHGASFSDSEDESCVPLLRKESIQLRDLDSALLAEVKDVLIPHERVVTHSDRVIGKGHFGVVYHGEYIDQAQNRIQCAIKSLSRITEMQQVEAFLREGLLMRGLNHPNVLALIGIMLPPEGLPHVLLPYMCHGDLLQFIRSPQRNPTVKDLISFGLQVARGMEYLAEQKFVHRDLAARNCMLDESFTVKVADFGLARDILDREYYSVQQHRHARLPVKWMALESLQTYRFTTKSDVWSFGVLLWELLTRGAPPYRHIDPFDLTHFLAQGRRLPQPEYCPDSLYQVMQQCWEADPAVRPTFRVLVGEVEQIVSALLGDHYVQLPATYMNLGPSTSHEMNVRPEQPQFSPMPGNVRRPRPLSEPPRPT
Mitogen-activated protein kinase kinase kinase 3 (Homo sapiens), sequence (Q99759 whole entry, the tested form may be a part): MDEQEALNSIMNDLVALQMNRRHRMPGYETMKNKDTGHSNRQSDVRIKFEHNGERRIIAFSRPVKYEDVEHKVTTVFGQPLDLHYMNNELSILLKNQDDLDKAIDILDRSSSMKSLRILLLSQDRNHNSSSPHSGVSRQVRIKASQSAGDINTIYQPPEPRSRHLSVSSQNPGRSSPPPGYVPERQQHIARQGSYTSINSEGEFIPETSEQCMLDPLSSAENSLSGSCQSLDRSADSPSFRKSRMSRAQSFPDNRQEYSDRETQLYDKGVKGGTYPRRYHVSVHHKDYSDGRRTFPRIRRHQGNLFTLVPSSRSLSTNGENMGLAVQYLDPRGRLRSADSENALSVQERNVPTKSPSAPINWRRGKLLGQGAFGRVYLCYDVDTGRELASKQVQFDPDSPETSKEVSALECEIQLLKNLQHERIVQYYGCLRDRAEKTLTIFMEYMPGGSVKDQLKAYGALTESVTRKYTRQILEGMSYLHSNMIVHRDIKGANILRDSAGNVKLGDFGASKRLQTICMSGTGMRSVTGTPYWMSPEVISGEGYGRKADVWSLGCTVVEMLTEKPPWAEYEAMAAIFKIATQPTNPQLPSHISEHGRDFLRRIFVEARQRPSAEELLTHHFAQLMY
Cyclin-dependent kinase 16 (Homo sapiens), sequence (Q00536 whole entry, the tested form may be a part): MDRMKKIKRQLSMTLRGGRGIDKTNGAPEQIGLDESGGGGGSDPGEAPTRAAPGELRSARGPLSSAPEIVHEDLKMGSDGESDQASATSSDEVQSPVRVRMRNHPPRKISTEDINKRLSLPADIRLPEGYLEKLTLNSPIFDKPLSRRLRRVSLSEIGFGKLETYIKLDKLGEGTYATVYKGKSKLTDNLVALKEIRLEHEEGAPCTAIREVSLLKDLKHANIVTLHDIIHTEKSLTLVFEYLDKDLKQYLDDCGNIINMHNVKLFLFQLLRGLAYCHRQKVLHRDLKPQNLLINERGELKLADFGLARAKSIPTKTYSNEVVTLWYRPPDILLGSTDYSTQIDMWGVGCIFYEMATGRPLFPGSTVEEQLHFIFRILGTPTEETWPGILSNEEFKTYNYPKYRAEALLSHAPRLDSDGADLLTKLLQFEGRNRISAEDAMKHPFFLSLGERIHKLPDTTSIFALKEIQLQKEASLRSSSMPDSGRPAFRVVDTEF
Glycogen synthase kinase-3 alpha (Homo sapiens), sequence (P49840 2-483 limits assumed): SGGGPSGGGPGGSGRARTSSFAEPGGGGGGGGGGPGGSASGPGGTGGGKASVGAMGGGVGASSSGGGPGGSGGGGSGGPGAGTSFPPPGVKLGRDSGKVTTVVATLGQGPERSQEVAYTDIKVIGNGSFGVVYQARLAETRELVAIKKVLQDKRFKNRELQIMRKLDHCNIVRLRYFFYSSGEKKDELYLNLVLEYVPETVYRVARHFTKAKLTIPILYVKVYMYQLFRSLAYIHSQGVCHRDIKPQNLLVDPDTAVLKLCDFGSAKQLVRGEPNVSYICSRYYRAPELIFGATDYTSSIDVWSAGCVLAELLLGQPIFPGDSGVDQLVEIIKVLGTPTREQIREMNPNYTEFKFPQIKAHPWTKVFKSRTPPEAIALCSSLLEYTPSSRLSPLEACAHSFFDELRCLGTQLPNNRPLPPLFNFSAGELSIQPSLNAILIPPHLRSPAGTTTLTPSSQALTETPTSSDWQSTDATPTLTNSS
Tyrosine-protein kinase Fgr (Homo sapiens), sequence (P09769 2-529 limits assumed): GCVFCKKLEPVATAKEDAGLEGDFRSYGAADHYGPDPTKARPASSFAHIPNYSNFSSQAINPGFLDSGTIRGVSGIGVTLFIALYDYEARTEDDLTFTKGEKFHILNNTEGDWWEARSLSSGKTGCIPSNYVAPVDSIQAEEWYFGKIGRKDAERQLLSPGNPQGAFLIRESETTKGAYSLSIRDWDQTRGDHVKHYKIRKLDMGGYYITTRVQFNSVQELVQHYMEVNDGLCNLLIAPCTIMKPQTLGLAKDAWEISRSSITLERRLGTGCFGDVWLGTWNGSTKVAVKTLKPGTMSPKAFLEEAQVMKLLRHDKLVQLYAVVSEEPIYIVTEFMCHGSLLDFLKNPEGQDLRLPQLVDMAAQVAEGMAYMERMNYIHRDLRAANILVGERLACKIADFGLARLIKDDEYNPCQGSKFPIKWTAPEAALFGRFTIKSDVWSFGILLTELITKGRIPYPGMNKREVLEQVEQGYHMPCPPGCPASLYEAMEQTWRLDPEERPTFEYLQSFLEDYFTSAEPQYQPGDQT

In the case of `O=C(Nc1cc(-c2cn(CCNc3c4c(nc5ccccc35)CCCC4)nn2)ccn1)Nc1cccc2c1C1CCCCN1C2=O` (racemic), the Activity [1] is reported as 74%, the Activity [2] is reported as 21% and the Activity [3] is reported as 49%. The Activity [4] was 100%, the Activity [5] was 0.3% and the Activity [6] was 2.6%. The Activity [7] was 70%, the Activity [8] was 89% and the Activity [9] was 81%. The Activity [10] was 77%, the Activity [11] was 4.2% and the efflux ratio (MDR1) was 1.51. The Activity [12] was 73%, the Activity [13] was 0.04% and the Activity [14] was 4.3%. For the same compound, the Activity [15] was 100%, the Activity [16] was 1.8% and the Activity [17] was 22%. It also gave an Activity [18] of 70%, an Activity [19] of 31% and a cytotoxicity at 24 h, 100 µM [20] of 50%. It also gave an Activity [21] of 100%, an Activity [22] of 97% and an Activity [23] of 11%. It also gave an Activity [24] of 35%.
